This is an account of results in US12075788B2, “Antimicrobial nano-emulsion” (Laboratoire M2, priority 2019, dated 2024).

For series [1] the following is noted: concentration similar to body care products; cited from earlier work.
The conditions of series [2]: Rats fed 300 mg per day; cited from earlier work.
The conditions of series [3]: cited from earlier work.
For series [4], the system named is Erwinia amylovora streptomycin resistant strain (1535m5). In words: Detached apple flower assay for fire blight blossom infection, streptomycin resistant strain. Particulars: Streptomycin 17 0.6 g/L; 7 days after inoculation; FIG. 12. In kind it is in vivo. The procedure: (§1) Refrigerated dormant 2-year potted apple trees (cv Gala) were forced to bloom at room temperature in late March 2019. Fresh individual flowers were handpicked as they bloomed and placed in small vials containing 10% sucrose, ensuring their pedicels were submerged. The vials were inserted in racks that were placed in small air-tight boxes for incubation at 25° C. A thin layer of a glycerol water solution (33% w/w) in each box maintained constant humidity. Flowers were individually inoculated directly in the hypanthium with 10 μL of a 10^5 CFU/mL suspension of Erwinia amylovora in PBS with Tween 20 at 0.1% w/w. Half the flowers were inoculated with a streptomycin resistant strain (1535m5) collected in Oregon, USA, and the other half with a local streptomycin sensitive strain (435s). […] Approximately 30 minutes after inoculation, 10 randomly selected individual flowers of each strain organized in 5 blocks were flooded with 32 μL of each treatment. […] Severity scores excluding streptomycin treated flowers were analyzed with a cumulative link mixed model (clmm) in the “ordinal” package of R(Christensen 2015) using blocks as a random effect. Because of separation, data with streptomycin were analyzed with the “bract” function of the package “brglm2” under R using mean bias reduction (Kosmidis, Pagui, and Sartori 2019). […]

Series [5] concerns Erwinia amylovora streptomycin sensitive strain (435s). Nature of the series: Detached apple flower assay for fire blight blossom infection, streptomycin sensitive strain. In kind it is in vivo. The settings on record: Streptomycin 17 0.6 g/L; 7 days after inoculation; FIG. 12. The procedure:
as §1

The structures appear in SMILES notation.

With `C/C=C/C=C/C(=O)[O-].[K+]` [potassium sorbate], in series [1], the irritation and sensitization entry is “practically non-irritating and non-sensitizing”. For the same compound, the effects of feeding result in series [2] is recorded as “no observed deleterious effects”. The acceptable daily intake in series [3] (European Food Safety Authority (EFSA)) was 3 mg per kg of body weight per day. In addition, the “maximum acceptable daily intake for humans” value in series [3] (USA) is recorded as 25 mg per kg of body weight per day.
Consider `[H]/N=C(/N)N[C@H]1[C@H](O)[C@@H](O)[C@H](O[C@@H]2O[C@@H](C)[C@](O)(C=O)[C@H]2O[C@@H]2O[C@@H](CO)[C@H](O)[C@@H](O)[C@@H]2NC)[C@@H](N/C(N)=N\[H])[C@@H]1O` [streptomycin], for which the “effect on fire blight on flowers” value in series [4] is “no effect”; in series [5], “strongly inhibited fire blight”.
